From ChEMBL document CHEMBL2040837, “Synthesis and cytotoxic activity of some 17-picolyl and 17-picolinylidene androstane derivatives” (Eur J Med Chem, 2012)

Tests used:
HeLa = assay: Cytotoxicity against human HeLa cells […] by SRB assay; format: functional, cell-based
HT-29 = assay: Cytotoxicity against human HT-29 cells […] by SRB assay; format: functional, cell-based
MRC5 = assay: Cytotoxicity against human MRC5 cells […] by SRB assay; format: cell-based
PC-3 = assay: Cytotoxicity against AR-negative human PC3 cells after 48 hr by SRB assay; conditions: PC-3, 48 h
MCF7 = assay: Cytotoxicity against ER-positive human MCF7 cells after 48 hr by SRB assay; conditions: MCF7, 48 h
MDA-MB-231 [1] = assay: Cytotoxicity against ER-negative human MDA-MB-231 cells after 48 hr by SRB assay; conditions: for IC50: MDA-MB-231, 48 h
MDA-MB-231 [2] = assay: Ratio of 17alpha-picolyl-androst-5-en 3beta, 17beta-diol IC50 to compound IC50 cytotoxicity against ER-negative human MDA-MB-231 cells after 48 hr by SRB assay
MDA-MB-231 [3] = assay: Cytotoxicity against ER-negative human MDA-MB-231 cells at <1 uM after 48 hr by SRB assay

| SMILES | IC50 (HeLa) | IC50 (HT-29) | IC50 (MRC5) | IC50 (PC-3) | IC50 (MCF7) | Activity (MDA-MB-231 [1]) | IC50 (MDA-MB-231 [1]) | Ratio IC50 (MDA-MB-231 [2]) | Activity (MDA-MB-231 [3]) |
| --- | --- | --- | --- | --- | --- | --- | --- | --- | --- |
| C[C@]12CC[C@H](O)[C@@H](O)C1=CC[C@@H]1[C@@H]2CC[C@@]2(C)[C@H]1CC[C@@]2(O)Cc1ccccn1 | 21.3 µM | 2.6 µM | > 100 µM | 21.3 µM | > 100 µM | Dose-dependent effect | 5.6 µM | 17 | – |
| C[C@]12CCC(=O)C(O)=C1C=C[C@@H]1[C@@H]2CC[C@]2(C)/C(=C/c3ccccn3)CC[C@@H]12 | – | – | > 100 µM | > 100 µM | > 100 µM | Dose-dependent effect | 9.3 µM | – | – |
| C[C@]12CCC=CC1=CC[C@@H]1[C@@H]2CC[C@]2(C)/C(=C/c3ccccn3)CC[C@@H]12 | 23.3 µM | 1.8 µM | > 100 µM | 19.9 µM | 55.8 µM | Dose-dependent effect | 4.6 µM | – | – |
| C[C@]12CCC(=O)C(O)=C1C=C[C@@H]1[C@@H]2CC[C@@]2(C)[C@H]1CC[C@@]2(O)Cc1ccccn1 | 36.6 µM | > 100 µM | > 100 µM | 25.6 µM | 3.6 µM | Dose-dependent effect | 1.2 µM | – | – |
| C[C@]12CCC=CC1=CC[C@@H]1[C@@H]2CC[C@@]2(C)[C@H]1CC[C@@]2(O)Cc1ccccn1 | 27.5 µM | 11.7 µM | > 100 µM | 24.7 µM | 17.4 µM | Dose-dependent effect | 2.3 µM | – | – |
| C[C@]12CC[C@H]3[C@@H](C[C@@H]4O[C@@]45C[C@@H](O)CC[C@]35C)[C@@H]1CC[C@@]2(O)Cc1cccc[n+]1[O-] | 33.5 µM | 25.8 µM | > 100 µM | 33.6 µM | > 100 µM | Dose-dependent effect | 7.5 µM | – | – |
| C[C@]12CC[C@H](O)C=C1CC[C@@H]1[C@@H]2CC[C@]2(C)/C(=C/c3ccccn3)CC[C@@H]12 | – | – | > 100 µM | 10.1 µM | > 100 µM | Dose-dependent effect | > 100 µM | – | – |
| C[C@]12CC[C@H](O)CC1=CC[C@@H]1[C@@H]2CC[C@@]2(C)[C@H]1CC[C@@]2(O)Cc1ccccn1 | – | – | > 100 µM | 6.3 µM | > 100 µM | Dose-dependent effect | 96.1 µM | – | – |
| COC1=C2CC[C@@H]3[C@H](CC[C@]4(C)/C(=C/c5ccccn5)CC[C@@H]34)[C@@]2(C)CCC1=O | 15.3 µM | 56 µM | > 100 µM | 34.1 µM | > 100 µM | Dose-dependent effect | 4.1 µM | – | 10% |
| C[C@]12CC[C@H](O)[C@H](O)C1=CC[C@@H]1[C@@H]2CC[C@@]2(C)[C@H]1CC[C@@]2(O)Cc1ccccn1 | 26.6 µM | 8 µM | > 100 µM | 52.1 µM | > 100 µM | Dose-dependent effect | 9 µM | 10 | – |
| CC(=O)O[C@@H]1C=C2CC[C@@H]3[C@H](CC[C@@]4(C)[C@H]3CC[C@@]4(O)Cc3ccccn3)[C@@]2(C)CC1 | > 100 µM | 10.6 µM | > 100 µM | 31.3 µM | > 100 µM | Dose-dependent effect | 10.2 µM | – | – |
| C[C@]12CCC(=O)C=C1C(=O)C[C@@H]1[C@@H]2CC[C@@]2(C)[C@H]1CC[C@@]2(O)Cc1ccccn1 | > 100 µM | > 100 µM | > 100 µM | 4.3 µM | > 100 µM | Dose-dependent effect | > 100 µM | – | – |
| C[C@]12CCC(=O)C(O)=C1CC[C@@H]1[C@@H]2CC[C@]2(C)C(=O)CC[C@@H]12 [FORMESTANE] | 5.55 µM | > 100 µM | > 100 µM | 48.4 µM | > 100 µM | Dose-dependent effect | 55.5 µM | – | – |
| COc1cccc2c1C(=O)c1c(O)c3c(c(O)c1C2=O)C[C@@](O)(C(=O)CO)C[C@@H]3O[C@H]1C[C@H](N)[C@H](O)[C@H](C)O1 [DOXORUBICIN] | 1.17 µM | 0.32 µM | 0.12 µM | 95.6 µM | 0.75 µM | Dose-dependent effect | 0.12 µM | – | – |
| COC1=C2CC[C@@H]3[C@H](CC[C@@]4(C)[C@H]3CC[C@@]4(O)Cc3ccccn3)[C@@]2(C)CCC1=O | 19.1 µM | > 100 µM | > 100 µM | 54.8 µM | > 100 µM | Dose-dependent effect | 42.6 µM | – | – |
| C[C@]12CC[C@H](O)C=C1CC[C@@H]1[C@@H]2CC[C@@]2(C)[C@H]1CC[C@@]2(O)Cc1ccccn1 | 26.9 µM | > 100 µM | > 100 µM | 22.3 µM | > 100 µM | Dose-dependent effect | 3.8 µM | – | – |
